A short description of series [1]: Cmax in healthy human at […] parenteral dose. It is filed as ADME, organism-based. As to conditions: in vivo.
The nature of series [2]: Drug level in sputum of healthy human between 6 to 24 hrs postdosing. The class given is ADME, tissue-based. As to conditions: in vivo.

Broadly, the Cmax is the highest concentration seen after dosing.

For the compound `CCC(CC)[C@H](NC(C)=O)[C@@H]1[C@H](O)[C@@H](C(=O)O)C[C@H]1NC(=N)N` [PERAMIVIR ANHYDROUS], in series [1], the Cmax was 10000 ng/mL.

Take `CC(=O)N[C@H]1[C@H]([C@H](O)[C@H](O)CO)OC(C(=O)O)=C[C@@H]1N=C(N)N` [ZANAMIVIR]: the Drug uptake in series [2] was 47 ng/mL.

The values are drawn from ChEMBL document CHEMBL1649232 (Antimicrob Agents Chemother, 2009).
